# Experimental data as given in patent US20040057958A1, “Immunogenicity-enhancing carriers and compositions thereof and methods of using the same” (priority 2002, published 2004).
# Tested on: mice
# Test: ELISA of antisera from mice immunized with CPT1PaTXL
# Format: in vivo
# Conditions: ten mice inoculated SC/IP with CPT1PaTXL (first two inoculations +PTA); any bleed, including the terminal bleed; TXL coupled to BSA for ELISA
# Experimental: The hybridoma project began with a series of sequential inoculations by subcutaneous (SC) or interperitoneal (IP) injections of 100 μg of CPT1PaTXL formulated in PBS. In addition to the CPT1PaTXL, the first two inoculations also contained […] toxin as adjuvant (PTA). All subsequent inoculations were without PTA and had various amounts of CPT1PaTXL according to the following approximate schedule:
# Ten mice were used in the immunization protocol. At each scheduled test bleed, 100 μl of blood was obtained from the tail, and an ELISA was conducted to evaluate reactivity against either Polyglutamate (PG) alone, Paclitaxel (TXL) or CT-2103. Because of the poor solubility of TXL in aqueous solutions, TXL was coupled to Bovine Serum Albumin, fraction V (Sigma Biochemicals, St. Louis Mo.) for ELISA testing. ELISA assays are performed as described in detail in Harlow, E. and Lane, D., Antibodies, A Laboratory Manual, Cold Spring Harbor Laboratory Press, 1988, pp. 564-569. Reactivity against the P. falciparum peptide epitope was analyzed following the terminal bleed.
smiles,measurement,value
"CC(=O)O[C@H]1C(=O)[C@@]2(C)[C@H]([C@H](OC(=O)c3ccccc3)[C@]3(O)C[C@H](OC(=O)[C@H](O)[C@@H](NC(=O)c4ccccc4)c4ccccc4)C(C)=C1C3(C)C)[C@]1(OC(C)=O)CO[C@@H]1C[C@@H]2O [TXL, Paclitaxel]","antibody reactivity (anti-PG, anti-TXL, anti-CT-2103) in ELISA of test bleeds",no detectable
